Measured values as given in patent publication US4120951A, “Polypeptide hormones of the thymus” (Sloan-Kettering Institute for Cancer Research, priority 1977, dated 1978).
Ends that are not written are not given here.

Assays:
bone marrow cells = assay: Direct cytotoxic test (trypan blue) for TL induction, bone marrow cells; format: cell-based, mouse
Protocol: (§1) Bone marrow cells were obtained from the femoral marrow. Both spleen and marrow cells were teased into single cell suspensions and washed three times in RPMI 1640 medium supplemented with 10 mM Hepes and 100 U/ml of penicillin and 100 μg/ml of streptomycin. The cells were then suspended in the same medium with 10% bovine serum at a concentration of 5.0×10^6 cells/ml. One milliliter of this suspension was incubated with an appropriate dilution of thymin in 16 mm plastic petrie dishes in a humidified atmosphere containing 5% CO2 in air. At the end of the incubation the cells were washed twice and held at 4° C. at a concentration of 5.0×10^6 cells/ml in culture medium until tested for the presence of TL or Thy-1(0).
(§2) Bone marrow and spleen cells were obtained by flotation in BSA gradients similar to those used by Komuro and Boyse (Lancet, 10, 39, 1964). These cells were tested for their susceptibility to anti TL and Thy-1(0) antibodies in a direct cytotoxicity test, using the uptake of trypan blue as a measure of cell death.
(§3) The actual number of cells induced could not be determined in the cytotoxic inhibition assay since this test is a measure of the total antigen present in the culture. […] However, unless sufficient numbers of such cells are present they cannot be detected because of a substantial background usually found in such tests. […]

[1] = tested on: neuromuscular transmission; assay: Electromyographic assay of neuromuscular transmission in mice after intraperitoneal injection; format: in vivo; details: for activity of the isolated fraction in producing neuromuscular block: QAE-Sephadex fractions, FIG. 3; for therapeutically effective amount: at least about; for dose producing a statistically significant (P < 0.001) decrement in the electromyographic response: 5 days after dose, supramaximal nerve stimulation 50 impulses per second; for mean decrement: height of tenth muscle action potential as % of the first: 5 days after doses above threshold, controls 94 ± 2%; for dose range at which active: test not stated
Protocol: To determine the neuromuscular action of Thymin I and Thymin II, the electromyographic response of mice 5 days after various doses of Thymin I or Thymin II is summarized in FIG. 4. Bovine serum albumin (0.5 mg/ml, 0.9% saline) was used as a protein stabilizer and controls were injected with the solvent alone.
In 15 control mice sampled at 75 sites the height of the tenth muscle action potential was 94 ± 2% (mean ± s.e.m.) of the height of the first. The mean values and s.e.m. (vertical bars) are shown for groups of 4-10 mice given various doses of Thymin I(o) and Thymin II (.quadrature.). Statistical significances of differences from the controls were calculated by Student's t-test and are shown by solid symbols (P < 0.001 ), half solid symbols (0.05 > P < 0.001) and open symbols (P > 0.05).
Mice were given 100 ng of Thymin I or solvent and five mice from each group were tested at various times. With supramaximal nerve stimulation at 50 impulses per second the height of the tenth muscle action potential was expressed as a percentage of the first. This change was calculated for five points in each of five to ten mice from each group. For each time point the change in Thymin-treated mice was expressed as a percentage of the change in solvent-treated control mice and the statistical significance of the difference was assessed by Student's t-test. A statistically significant (P < 0.001) abnormality in the electromyogram was first evident at 18 hours, was maximal at 24 hours and persisted through 5 days.
To make the determinations described in FIGS. 4 and 5, extracts were injected into test animals and neuromuscular transmission was studied after an interval of one to five days. Initial 100 g guinea pigs were injected intraperitoneally; neuromuscular transmission was studied in vitro with a preparation of the phrenic nerve and hemidiaphragm. Subsequently, 200 g rats were used; fractions were injected subcutaneously and neuromuscular transmission was assessed electromyographically. […] Female Swiss-Webster mice weighing 25-35 g were injected intraperitoneally, groups of five to ten mice being used to test each fraction. The animals were anesthetized with urethane and electromyography was performed as described. The muscle action potentials were recorded in each mouse following supramaximal nerve stimulation with 10 impulses at a rate of 50 per second. Five sites were sampled in each mouse and for each group of mice the mean standard deviation and s.e.m. were calculated for the change in the height of the muscle action, potential being expressed as a percentage of the height of the first impulse.
The statistical significance of differences found were assessed by student's t-test.

spleen cells = assay: Direct cytotoxic test (trypan blue) for TL induction, spleen cells; format: cell-based, mouse; details: 20 ng/ml, 2 hours, least dense BSA gradient fraction
Protocol: as §1, §2, §3

mouse bone marrow cells = assay: Cytotoxic inhibition test for induction of TL and Thy-1 antigens; format: cell-based; details: for absorption of antibodies directed against TL or Thy-1 by treated cells: unfractionated bone marrow cells, 100 ng/ml, 18 hours
Protocol: Thymin I and Thymin II were isolated from bovine thymus as described. Each was dissolved in phosphate buffered saline (containing 1 mg/ml of bovine serum albumen to minimize adsorbtive losses), distributed into 2 μg lots and lyophilized. Each polypeptide was reconstituted in tissue culture medium at the desired concentrations just prior to use.
as §1
ASL-1, a TL positive, Thy 1-2 (0-C3H) positive lymphoma of A strain mice was used as the target cell in all titrations of the antisera used in these experiments, and in the cytotoxic inhibition test to be described below. The lymophoma was maintained by weekly intraperitoneal passage in A/J mice. Lymphoma cells were labelled with Cr^51 and used as target cells in the cytotoxic inhibition test.
Antisera to either TL or Thy-1 (0) were titered to determine the quantity of antibody which was required to kill 50% of the target cells in a standard suspension. The appropriate amount of antiserum was added to each well of a microtiter plate with various dilutions of the cells being tested for their antigen content. The total volume was 0.15 ml. Cells expressing the antigen against which the antiserum was directed absorbed varying amounts of the antibody, and rendered less available to react with the Cr^51 labelled target cells which were added subsequently. The concentration of antibody used was extremely critical to the sensitivity of the test. The antisera to TL or Thy-1 (0) and the cells being tested for their antigen content were incubated together at 4° C. for 90 minutes. After this incubation 50,000 target cells in a volume of […] were added and the incubation continued in the cold for an additional 30 minutes to permit the sensitization of the target cells by the remaining unabsorbed antibody. The plates were then centrifuged at 1,500 rpm for 10 minutes and the supernatant fluid removed. The pelleted cells were resuspended in 0.1 ml or RPMI 1640, containing 4% fresh rabbit serum as a source of complement, and incubated for 45 minutes at 37° C. The cells were then repelleted by centrifugation and a 0.075 ml aliquot of the supernatant fluid was counted in an automatic gamma spectrometer to determine the amount of Cr^51 released from the target cells. All assays were performed in duplicate and the results were expressed by calculating the number of cells required to reduce the relative cytotoxic index (RCI) to 0.5. The RCI was calculated as follows: [formula]

[2] = single injection of 100 ng, mice

Row | Sequence | bone marrow cells killed by anti TL antiserum plus complement (bone marrow cells; 20 ng/ml, 2 hours, least dense BSA gradient fraction) [%] | highest value of cells killed by anti TL antiserum plus complement (bone marrow cells; other experiments, tissue not stated) [%] | activity of the isolated fraction in producing neuromuscular block [1] | therapeutically effective amount [1] | relative activity on neuromuscular transmission ([1]; compared with Thymin II) | dose producing a statistically significant (P < 0.001) decrement in the electromyographic response ([1]; mice) | mean decrement: height of tenth muscle action potential as % of the first ([1]; mice) [%] | time at which the electromyogram abnormality was maximal [1, 2] [h] | time through which the electromyogram abnormality persisted [1, 2] [days] | time at which the electromyogram abnormality was first evident ([1]; single injection of 100 ng, mice, P < 0.001) [h] | dose range at which active [1] | spleen cells killed by anti TL antiserum plus complement (spleen cells) [%] | concentration of maximal activity (mouse bone marrow cells) | lowest concentration at which active (mouse bone marrow cells) [picogram per mll] | concentration giving maximal induction of TL and Thy-1 antigens (mouse bone marrow cells; bone marrow cells) [ng/mL] | lowest concentration producing a measurable response (induction of TL and Thy-1 antigens) (mouse bone marrow cells; bone marrow cells) [pg/mL] | relative potency in inducing TL and Thy-1 antigens (mouse bone marrow cells; compared with Thymin II) | absorption of antibodies directed against TL or Thy-1 by treated cells (mouse bone marrow cells)
1 | GQFLEDPSVLTKEKLKSELVANNVTLPAGEQRKDVYVQLYLQHLTAVKR [Thymin I, H2 n--gly--gln--phe--leu--glu--asp--pro--ser--val--leu--thr--lys--glu--lys--leu--lys--ser--glu--leu--val--ala--asn--asn--val--thr--leu--pro--ala--gly--glu--gln--arg--lys--asp--val--tyr--val--gln--leu--tyr--leu--gln--his--leu--thr--ala--val--lys--arg--cooh] | 21 | ≤ 28 | active | at least 0.20 μg/kg of body weight | slightly more active | above 4 ng/mouse | 84 | 24 | 5 | 18 | about 0.1 mg/kg of body weight | 18 | 0.2-2 nanogram per mll | 20 | 2 | 20 | slightly more potent | absorbed antibodies
2 | SQFLEDPSVLTKEKLKSELVANNVTLPAGEQRKDVYVQLYLQTLTAVKR [Thymin II, H2 n--ser--gln--phe--leu--glu--asp--pro--ser--val--leu--thr--lys--glu--lys--leu--lys--ser--glu--leu--val--ala--asn--asn--val--thr--leu--pro--ala--gly--glu--gln--arg--lys--asp--val--tyr--val--gln--leu--tyr--leu--gln--thr--leu--thr--ala--val--lys--arg--cooh] |  |  | active | at least 1.3 μg/kg of body weight |  | above 32 ng/mouse | 82 |  |  |  | about 0.1 mg/kg of body weight |  | 0.2-2 nanogram per mll | 20 |  |  |  | absorbed antibodies
